Results reported in PubChem BioAssay AID549 (SRMLSC, 2006).
Calls of active or inactive are those of the source.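 The calls were made as follows: active = clearly stronger inhibition of phosphomevalonate kinase than of the coupling enzymes alone in a parallel counterscreen; inactive = the rest.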

Target: phosphomevalonate kinase (Streptococcus pneumoniae D39)
Test: S. pneumoniae PMK inhibitor potency, dose response, biochemical, mevalonate pathway, coupling enzyme counter-screen (AID 549)
Conditions: PK/LDH coupled NADH absorbance 340 nm

SMILES	outcome
O=c1oc2c3c4c(cc2cc1-c1nc2ccccc2[nH]1)CCCN4CCC3	inactive
N#Cc1cc2ccccc2nc1SCc1cccnc1	inactive
COc1cc2[nH]c(=O)n(CCC(=O)NC3CCN(Cc4ccccc4)CC3)c(=O)c2cc1OC	inactive
Cn1nc(CC(=O)Nc2ncc(Br)s2)c2ccccc2c1=O	inactive
CCN1CCN(C(c2ccc(F)cc2)c2nnnn2Cc2cccs2)CC1 (stereo not drawn)	inactive
O=C(c1ccc2ccccc2c1)N1CCN(c2ccc(O)cc2)CC1	inactive
CCOC(=O)CSc1n[nH]c(-c2cccnc2)n1	inactive
CCOCCCN1C(=O)CN(C2CCCCC2)C(=O)C1c1ccc(OCC)c(OC)c1 (stereo not drawn)	inactive
CCOC(=O)C1=C(O)C(=O)N(c2ccc(S(N)(=O)=O)cc2)C1c1ccc(OC)cc1 (stereo not drawn)	inactive
Cn1nnnc1Sc1ncnc2scc(-c3ccc(F)cc3)c12	inactive
COc1ccc(N2C(C)=CS/C2=C(/C#N)c2nnc(N3CCOCC3)n2-c2ccccc2)cc1	inactive
Cc1csc(NC(=O)C2CCC(C)(C(=O)O)C2(C)C)n1 (stereo not drawn)	inactive
O=C(c1n[nH]c(=O)c2ccccc12)N1CCN(C2c3ccccc3-c3ccccc32)CC1	inactive
CCOc1cc(C#N)c(NC(=O)c2cccnc2)cc1OCC	inactive
COCCCNC(=O)c1ccc(N2CCCC2)c(NS(=O)(=O)c2ccc(C)cc2)c1	inactive
N#Cc1cccc(CSc2nnc(CCCO)n2-c2ccccc2)c1	inactive
CC(C)OC(=O)CN1C(=O)c2ccccc2C1=O	inactive
CCc1nn(C(C)C(=O)NCCc2ccc(OC)c(OC)c2)c(=O)c2cc3occc3n12 (stereo not drawn)	inactive
CCOC(=O)N1CCN(C(=O)Cn2nc(-c3ccc(Cl)cc3)ccc2=O)CC1	inactive
COc1ccccc1NC(=O)C1=C(C)NC2=C(C(=O)CCC2)C1c1ccc(C)o1 (stereo not drawn)	inactive
COc1ccc(C(=O)Nc2cccc3c2C(=O)NC3=O)cc1S(=O)(=O)N1CCOCC1	inactive
CCn1c(SCC(=O)Nc2ccc(Cl)cc2)nnc1C1CC1	inactive

SMILES	outcome
Cc1oc2c(O)c(O)ccc2c(=O)c1-c1ccccc1	inactive
Cc1noc(C)c1CSc1nnc(-c2ccncc2)n1-c1cccc(Cl)c1C	inactive
COCC(C)n1c(COc2ccccc2F)nnc1SCc1c(C)noc1C (stereo not drawn)	inactive
CC(C)OC(=O)C1C(=O)CC(C)(O)C(C(=O)OC(C)C)C1c1cccnc1 (stereo not drawn)	inactive
CCc1nnc(NC(=O)c2cccs2)s1	inactive
CC(=O)N1CCC(N2CCN(c3ccccc3F)CC2)CC1	inactive
Cn1cnnc1SCC(=O)n1c2ccccc2c2ccccc21	inactive
CN(C(=O)c1cnccn1)c1nnc(-c2cccnc2)s1	inactive
O=C(CNC(=O)c1cccs1)NCCN1CCN(c2ccccc2F)CC1	inactive
CCC(=O)N(Cc1ccco1)c1nc(-c2ccccc2)cs1	inactive
O=C(c1cc(-c2ccco2)on1)N1CCCc2ccccc21	inactive
CCC1CCCCN1CCCNC(=O)Cn1nc(-c2ccccc2)ccc1=O (stereo not drawn)	inactive
CCc1ccc(OCc2nnc(SCC(=O)NCc3ccco3)o2)cc1	inactive
CCOC(=O)c1c(C)n(C)c2ccc(OC)c(NS(=O)(=O)c3ccc(Cl)s3)c12	inactive
O=C(Nc1cccc2ccccc12)c1cnccn1	inactive
CC(C)n1nnnc1SCC(=O)Nc1ccccc1N1CCOCC1	inactive
COCc1cc(=O)[nH]c(Nc2nc(C)c3ccc(C)cc3n2)n1	inactive
Cc1ccc(C(=O)c2cc3c(cc2N)OCCO3)cc1	inactive
CCOc1ncccc1C(=O)OCc1cc(=O)n2c(n1)sc1ccccc12	inactive
CN1CC(=O)NC1=NC(=O)c1ccc(Cl)c(S(=O)(=O)N2CCCCCC2)c1	inactive
CCOC(=O)C1=C(NC(=O)c2ccc(Br)o2)Nc2ccccc2N=C1	inactive
CCNc1nc(NC(C)(C)C)nc(N(C#N)CC)n1	inactive

SMILES	outcome
COc1ccc2c(c1OC)C(=O)OC2C1c2c(cc3c(c2OC)OCO3)CCN1C (stereo not drawn)	inactive
COc1ccc(CN2C(=O)c3ccccc3C2C(=O)NC2CCCC2)c(OC)c1 (stereo not drawn)	inactive
COc1ccc(C2(C)NC(=O)N(Cc3cc(Cl)cc4c3OCOC4)C2=O)cc1OC (stereo not drawn)	inactive
CCOc1ccc(S(=O)(=O)NCCCN2CCOCC2)c2ccccc12	inactive
Cc1ccc(-c2noc(CCC(=O)NCCN3CCc4ccccc4C3)n2)cc1	inactive
CC(C)OC(=O)CCC1(C(=O)O)CCC(=O)NC1 (stereo not drawn)	inactive
CC(Sc1ncc(C#N)c(N)n1)C(=O)Nc1ccccc1 (stereo not drawn)	inactive
Cc1cccc2cc(CN(CCN3CCCC3)C(=O)NC3CCCCC3)c(=O)[nH]c12	inactive
Cc1c2c(nc3c(C(=O)NC4CCCCC4C)cnn13)CCCC2 (stereo not drawn)	inactive
CC(OC(=O)c1cccs1)C(=O)NCC1CCCO1 (stereo not drawn)	inactive
COc1ccc(NC2CC(=O)NC2=O)cc1 (stereo not drawn)	inactive
CC1SC(=NC(=O)c2ccco2)NC1=O (stereo not drawn)	inactive
COCCCNC(=O)CN(C1CCCCC1)S(=O)(=O)c1ccc(C)cc1	inactive
Cn1c(SCC(=O)NCc2ccco2)nc2ccccc2c1=O	inactive
CS(=O)(=O)N1CCCC(C(=O)NCCc2ccc(Cl)cc2)C1 (stereo not drawn)	inactive
Cn1c(=O)c2c(-c3ccccc3)n(C3CCCCC3)cc2n(C)c1=O	inactive
CC(C)COC(=O)NCC12C=CC(O1)C1C(=O)N(c3ccc(Cl)cc3)C(=O)C12 (stereo not drawn)	inactive
O=C(COC(=O)c1ccco1)NC1CCCCC1	inactive
Cc1nc(NC(=O)c2ccco2)sc1C(=O)Nc1ccc(Br)cc1	inactive
CCOc1ccc(Nc2nc(Cc3nnc(SCC(N)=O)o3)cs2)cc1	inactive
Cc1ccc(-n2c(CSc3nc(C)cc(C)n3)nnc2SCC(=O)NCc2ccco2)cc1	inactive
Cc1nonc1NC(=O)CSc1ccc(-c2ccccc2)nn1	inactive

SMILES	outcome
COc1cccc(CNC(=O)C2CCCN(c3nn4c(=O)cc(C)nc4s3)C2)c1 (stereo not drawn)	inactive
CC(C)=CC(=O)Nc1ccc(Br)cc1	inactive
CN1C(=O)OC2(C)CCc3ccccc3C12C (stereo not drawn)	inactive
CCCCNc1nc2c(c(=O)n(C)c(=O)n2C)n1CCC	inactive
CS(=O)(=O)N1CCCC(C(=O)NCc2ccccn2)C1 (stereo not drawn)	inactive
Cc1nc2ccc3nc(NC(=O)c4ccco4)sc3c2s1	inactive
Cc1c2cnn(CC(=O)N3CCC4(CC3)OCCO4)c(=O)c2c(C)n1Cc1ccc(F)cc1	inactive
CCOc1ccccc1-n1c(SCC(=O)Nc2ccc(CC)cc2)nc2n[nH]c(C)c2c1=N	inactive
COCCn1c(C)cc2c(c1=O)C(c1ccccc1F)C(C#N)=C(N)O2 (stereo not drawn)	inactive
CS(=O)(=O)N(CC(=O)N1CCN(c2ccccc2)CC1)C1CCCCC1	inactive
CCCC(=O)Nc1cccc(NC(=O)CN2CCN(c3ccccc3OC)CC2)c1	inactive
O=C(Cc1cn2ccsc2n1)OCc1nc2ccccc2s1	inactive
CCCn1cnc2c(cnn2-c2ccc(F)cc2)c1=O	inactive
COc1ccc(-c2coc3c(CN4CCCCC4)c(O)c(CN4CCCCC4)c(O)c3c2=O)cc1	inactive
CCCOc1ccc(C2C(=O)N(C3CCCCC3)CC(=O)N2CCCOCC)cc1OC (stereo not drawn)	inactive
Cc1sc2ncnc(NCC(c3ccco3)N(C)C)c2c1C (stereo not drawn)	inactive
COC(=O)c1cc(=O)nc2sccn12	inactive
c1cncc(C(c2nnnn2C2CCCC2)N2CCCC2)c1 (stereo not drawn)	inactive
CC(C)C(C(=O)NCC1CCCO1)N(Cc1ccco1)C(=O)CNS(=O)(=O)c1ccc(F)cc1 (stereo not drawn)	inactive
COc1ccc(S(=O)(=O)N2CCN(C3CCCCCCC3)CC2)cc1	inactive
COCCNC(=O)C1CCCN(c2nn3c(=O)cc(C)nc3s2)C1 (stereo not drawn)	inactive
COc1ccc(Cn2nnnc2C(c2ccccn2)N2CCN(c3cc(Cl)ccc3C)CC2)cc1 (stereo not drawn)	inactive

SMILES	outcome
COc1ccc(CNC(=O)C2CCN(S(=O)(=O)N3CCOCC3)CC2)cc1	inactive
CCOC(=O)CNC(=O)Nc1nnc(-c2ccc(OCC)cc2)o1	inactive
CCOC(=O)C1CCN(C(=O)C2CCN(S(=O)(=O)N3CCCC3)CC2)CC1	inactive
CCOc1ccc(-c2nnc(SCC(=O)N3CCN(c4ccccc4)CC3)o2)cc1	inactive
Cc1cc(C)n2nc(SCc3cc(=O)n4c(C)cccc4n3)nc2n1	inactive
CCOC(=O)N1CCC(NC(=O)CSc2cc(=O)n(C)c3ccccc23)CC1	inactive
O=C(NCCCN1CCN(Cc2ccccc2)CC1)C1CCN(S(=O)(=O)N2CCCC2)CC1	inactive
O=C(Nn1c(C2CC2)nc2ccccc2c1=O)c1ccco1	inactive
Cc1ccccc1OCCCCc1c(C)n[nH]c1C	inactive
COc1cc2cc(CN(CCCO)S(=O)(=O)c3ccccc3Cl)c(=O)[nH]c2cc1OC	inactive
O=C(CSc1cc(Cl)ccc1Cl)NCC1CCCO1 (stereo not drawn)	inactive
CCOc1ccc(C2c3c(oc4cc(C)c(C)cc4c3=O)C(=O)N2CCCN(C)C)cc1OC (stereo not drawn)	inactive
COc1ccccc1CNC(=O)C1CCN(c2nc3ccccc3o2)CC1	inactive
C=CCNC(=O)C1CCCN(S(C)(=O)=O)C1 (stereo not drawn)	inactive
CC(CN1CCN(C)CC1)OC(=O)c1ccc(Cl)cc1 (stereo not drawn)	inactive
CCOc1cc(N2CCOCC2)c(OCC)cc1NC(=O)Cc1ccc(OC)c(OC)c1	inactive
CCn1c(SC(=O)NC2CCCCC2)nnc1-c1cccs1	inactive
CCN1C(=O)/C(=C2/Sc3ccc(OC)cc3N2C)SC1=Nc1ccc(C(C)=O)cc1	inactive
CCOC(=O)C1=C(C)Nc2ccccc2N=C1NC(=O)CCCN1C(=O)c2ccccc2C1=O	inactive
O=C(NCc1ccc2c(c1)OCO2)c1cc2n(n1)C(C(F)(F)F)CC(c1ccc3c(c1)OCO3)N2 (stereo not drawn)	inactive
